In assay [1] the test system is imiquimod-induced mouse psoriasis model. The experiment in a line: Imiquimod-induced mouse psoriasis model. Conditions: 10 mg/kg orally once daily for 5 days (3 to 7 days after induction); BALB/c mice; vs vehicle, P<0.05. Format: in vivo. Here is the method: Using increase in the ear thickness as an index of exacerbation of symptoms, the effect of the cyclic amine derivative (I) or a pharmacologically acceptable salt thereof in an imiquimod-induced mouse psoriasis model was evaluated. The imiquimod-induced mouse psoriasis model was prepared by a partially modified method by Schaper et al. (The Journal of Dermatological Science, 2013, Vol. 71, No. 1, p. 29-36).
BALB/c mice (male, 7 weeks old) (Charles River Laboratories Japan, Inc.) were used at 8 to 9 weeks old after preliminary breeding. To induce psoriasis-like symptoms, 5 mg each of BESELNA CREAM 5% was applied once daily to the outside of the right and left auricles of the mice for 8 days from the day of first administration of imiquimod (hereinafter referred to as induction day) to 7 days after induction (dose of imiquimod, 0.5 mg/body/day).
A test compound at a dose of 10 mg/kg was administered to the mice once daily for 5 days from 3 days after induction to 7 days after induction. As the test compound, the compound of Example 1, the compound of Example 4, and the compound of Example 9 were used. The compound of Example 1, the compound of Example 4, and the compound of Example 9 were respectively suspended in a 0.5 w/v % methylcellulose solution and orally administered. The group in which the compound of Example 1 was administered to mice was defined as the Example-1 compound administration group, the group in which the compound of Example 4 was administered was defined as the Example-4 compound administration group, and the group in which the compound of Example 9 was administered was defined as the Example-9 compound administration group. In the vehicle administration group, a vehicle of each test compound (0.5 w/v % methylcellulose solution) was similarly administered.
The right and left ear thickness before administration of imiquimod (before induction) on the induction day and the right and left ear thickness on the 8th day after induction were measured with a digital micrometer (Mitutoyo Corporation). […]

Assay [2] relates to IL-17 production in mouse splenocytes. The experiment in a line: Suppressive effect on IL-17 production by IL-23 stimulation in mouse splenocytes. Format: cell-based. The settings on record: Splenocyte, 72 h, at 5 μmol/L of the test compound, human IL-23 10 ng/mL, cultured 3 days, read-out: IL-17 production inhibition rate (%). Here is the method: Using mouse splenocytes, the suppressive effect of the cyclic amine derivative (I) or a pharmacologically acceptable salt thereof on IL-17 production by IL-23 stimulation was evaluated by a partially modified method mentioned in The Journal of Biological Chemistry, 2003, Vol. 278, No. 3, p. 1910-1914.
A single cell suspension was prepared from the spleen of C57BL/6J mice (male or female, 6 to 30 weeks old) (Charles River Laboratories Japan, Inc. or CLEA Japan, Inc.) and splenocytes were prepared using Histopaque-1083 (Sigma-Aldrich Japan). The culture medium was used by adding 10% FBS (Gibco), 50 U/mL of penicillin-50 μg/mL of streptomycin (Gibco), 50 μmol/L of 2-mercaptoethanol (Gibco), and 100 U/mL of human IL-2 (Cell Science & Technology Institute, Inc.) to RPMI1640 medium (Gibco). A test compound was dissolved in DMSO and then diluted with the culture medium to have a final concentration of DMSO of 0.1% before use. Splenocytes (3×10^5 cells/well) prepared in the culture medium were seeded in wells of a 96-well flat-bottom plate (Corning Incorporated), the test compound and 10 ng/mL of human IL-23 (R & D systems, Inc.) were added thereto, and the cells were cultured at 37° C. under 5% CO2 for 3 days. A well without addition of human IL-23 and without addition of the test compound and a well with addition of human IL-23 and without addition of the test compound were prepared. After completion of the culture, the culture supernatant was collected and the IL-17 production amount in the supernatant was determined by ELISA method (R & D systems, Inc.).
The IL-17 production inhibition rate (%) was calculated from Formula (2).
IL-17 production inhibition rate (%)=(1−((IL-17 production amount with addition of IL-23 and with addition of the test compound)−(IL-17 production amount without addition of IL-23 and without addition of the test compound))/((IL-17 production amount with addition of IL-23 and without addition of the test compound)−(IL-17 production amount without addition of IL-23 and without addition of the test compound)))×100 (2).

The results in this text go back to patent publication US20200392107A1, “CYCLIC AMINE DERIVATIVE AND MEDICAL USE THEREOF” (Toray Industries, Inc., priority 2018, published 2020).

By inhibition is commonly meant the share of the control response that was lost under treatment. Regarding `CC(=O)N1CCCC[C@@H]1C(=O)Nc1cc(Cl)c2c(c1)CCCN2Cc1ccc(C(F)(F)F)cc1` [Example 1, (R)-1-acetyl-N-(8-chloro-1-(4-(trifluoromethyl)benzyl)-1,2,3,4-tetrahydroquinolin-6-yl)piperidine-2-carboxamide], in assay [1], the “increase in the ear thickness (change in the ear thickness, 8th day after induction)” value is listed as “statistically significantly suppressed”. For the same compound, in assay [2], the inhibition at 5 µM turned out to be 98%.
On the same counts, the results for `CC(=O)N1CCCC[C@@H]1C(=O)Nc1cc(Cl)c2c(c1)CCN2Cc1ccc(C(F)(F)F)cc1` [Example 4, (R)-1-acetyl-N-(7-chloro-1-(4-(trifluoromethyl)benzyl)indolin-5-yl)piperidine-2-carboxamide] are “statistically significantly suppressed” and 99.9%.
With `CC(=O)N1CCCC[C@@H]1C(=O)Nc1cc(Cl)c2c(c1)CCN2C[C@H]1CC[C@H](C(F)(F)F)CC1` [Example 9, (R)-1-acetyl-N-(7-chloro-1-((trans-4-(trifluoromethyl)cyclo-hexyl)methyl)indolin-5-yl)piperidine-2-carboxamide], the “increase in the ear thickness (change in the ear thickness, 8th day after induction)” value in assay [1] is given as “statistically significantly suppressed”. The inhibition at 5 µM in assay [2] is 99.5%.
